Measurements from the NIST ThermoML archive (doi:10.1021/je900888e).

Assay: mn = molality of the nth substance listed, in mol/kg
Settings: 101 kPa, Liquid; for speed of sound: Pulse-echo method

CCCC[P+](CCCC)(CCCC)CCCC.[Br-] [tetrabutylphosphonium bromide] + CC(C)=O
Settings	mass density, 288.15 K [kg/m3]	mass density, 293.15 K [kg/m3]	mass density, 298.15 K [kg/m3]	mass density, 303.15 K [kg/m3]	mass density, 308.15 K [kg/m3]	mass density, 313.15 K [kg/m3]	speed of sound, 298.15 K [m/s]
m1 = 0.009972	796.516	790.843	785.133	779.385	773.586	767.735	1161.1
m1 = 0.01477	796.926	791.257	785.552	779.806	774.015	768.169	–
m1 = 0.01959	797.328	791.666	785.967	780.225	774.439	768.597	1161.8
m1 = 0.02424	797.711	792.056	786.362	780.624	774.841	769.006	–
m1 = 0.02891	798.099	792.447	786.758	781.026	775.247	769.416	–
m1 = 0.03385	798.51	792.86	787.178	781.451	775.678	769.85	1162.7
m1 = 0.04786	799.673	794.037	788.362	782.648	776.885	771.075	1163.6
m1 = 0.0619	800.822	795.195	789.537	783.836	778.088	772.29	1164.5
m1 = 0.07794	802.136	796.525	790.878	785.191	779.457	773.675	1165.7
m1 = 0.09642	803.646	798.046	792.414	786.74	781.022	775.257	1166.8
m1 = 0.123	805.822	800.247	794.64	788.995	783.255	777.557	1168.4
m1 = 0.1559	808.487	802.938	797.356	791.736	786.072	780.36	1170.4
m1 = 0.1912	811.381	805.858	800.306	794.713	789.077	783.39	1172.7
m1 = 0.2209	813.828	808.333	802.798	797.229	791.622	785.97	1174.3
m1 = 0.2576	816.813	811.345	805.845	800.309	794.734	789.113	1176.6
m1 = 0.2914	819.596	814.151	808.679	803.169	797.619	792.03	1178.7
